Tests used:
Type in all cases: in vivo
Settings in all cases: 250 g/ha unless otherwise stated, evaluated after 13 days, five-point scale
[1] = system: Amaranthus retoflexus (AMARE); test: Test 1 glasshouse herbicide test, post-emergence application (Table B1)
Outline: (§1)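 Score is % phytotoxicity after 13 days, binned 1 (0–20%) to 5 (81–100%). Compound given at 250 g/ha unless stated, as acetone/water (50:50) spray with 0.5% Tween 20, one day post-sowing (pre-emergence) or after 8 days' growth (post-emergence); glasshouse at 24/16 °C day/night, 14 h light, 65% humidity.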

[2] = system: Echinochloa crus-galli (ECHCG); test: as above
Outline: as §1

[3] = system: Ipomoea hederacea (IPOHE); test: as above
Outline: as §1

Lolium perenne (LOLPE) [4] = test: as above
Outline: as §1

Setaria faberi (SETFA) [5] = test: as above
Outline: as §1

Solanum nigrum (SOLNI) [6] = test: as above
Outline: as §1

[7] = system: Amaranthus retoflexus (AMARE); test: Test 1 glasshouse herbicide test, pre-emergence application (Table B2)
Outline: as §1

[8] = system: Echinochloa crus-galli (ECHCG); test: as above
Outline: as §1

[9] = system: Ipomoea hederacea (IPOHE); test: as above
Outline: as §1

Lolium perenne (LOLPE) [10] = test: as above
Outline: as §1

Setaria faberi (SETFA) [11] = test: as above
Outline: as §1

Solanum nigrum (SOLNI) [12] = test: as above
Outline: as §1

Structure (SMILES)	% phytotoxicity AMARE, post-emergence application [1]	% phytotoxicity ECHCG, post-emergence application [2]	% phytotoxicity IPOHE, post-emergence application [3]	% phytotoxicity LOLPE, post-emergence application (Lolium perenne (LOLPE) [4])	% phytotoxicity SETFA, post-emergence application (Setaria faberi (SETFA) [5])	% phytotoxicity SOLNI, post-emergence application (Solanum nigrum (SOLNI) [6])	% phytotoxicity AMARE, pre-emergence application [7]	% phytotoxicity ECHCG, pre-emergence application [8]	% phytotoxicity IPOHE, pre-emergence application [9]	% phytotoxicity LOLPE, pre-emergence application (Lolium perenne (LOLPE) [10])	% phytotoxicity SETFA, pre-emergence application (Setaria faberi (SETFA) [11])	% phytotoxicity SOLNI, pre-emergence application (Solanum nigrum (SOLNI) [12])
O=S(=O)(CCCC(F)(F)F)c1ccccc1Oc1ncc(Cl)cn1 [Compound A6]	5 (5=81 to 100%)	3 (3=41 to 60%)	3 (3=41 to 60%)	2 (2=21 to 40%)	4 (4=61 to 80%)	5 (5=81 to 100%)	5 (5=81 to 100%)	4 (4=61 to 80%)	2 (2=21 to 40%)	2 (2=21 to 40%)	5 (5=81 to 100%)	3 (3=41 to 60%)
FC(F)(F)CCCSc1ccccc1Oc1ncc(Cl)cn1 [Compound A4, 5-chloro-2-[2-(4,4,4-trifluorobutylsulfanyl)phenoxy] pyrimidine]	5 (5=81 to 100%)	4 (4=61 to 80%)	4 (4=61 to 80%)	4 (4=61 to 80%)	5 (5=81 to 100%)	5 (5=81 to 100%)	5 (5=81 to 100%)	5 (5=81 to 100%)	3 (3=41 to 60%)	4 (4=61 to 80%)	5 (5=81 to 100%)	4 (4=61 to 80%)
O=S(=O)(CCC(F)(F)F)c1ccccc1Oc1ncc(Cl)cn1 [Compound A3]	5 (5=81 to 100%)	4 (4=61 to 80%)	3 (3=41 to 60%)	4 (4=61 to 80%)	4 (4=61 to 80%)	5 (5=81 to 100%)	5 (5=81 to 100%)	5 (5=81 to 100%)	3 (3=41 to 60%)	4 (4=61 to 80%)	5 (5=81 to 100%)	4 (4=61 to 80%)
[O-][S+](CCCC(F)(F)F)c1ccccc1Oc1ncc(Cl)cn1 (stereo not drawn) [Compound A5]	5 (5=81 to 100%)	5 (5=81 to 100%)	4 (4=61 to 80%)	5 (5=81 to 100%)	5 (5=81 to 100%)	5 (5=81 to 100%)	5 (5=81 to 100%)	5 (5=81 to 100%)	5 (5=81 to 100%)	5 (5=81 to 100%)	5 (5=81 to 100%)	5 (5=81 to 100%)
[O-][S+](CCC(F)(F)F)c1c(F)cccc1Oc1ncc(Cl)cn1 (stereo not drawn) [Compound A8]	5 (5=81 to 100%)	1 (1=0 to 20%)	2 (2=21 to 40%)	1 (1=0 to 20%)	3 (3=41 to 60%)	4 (4=61 to 80%)	5 (5=81 to 100%)	2 (2=21 to 40%)	2 (2=21 to 40%)	2 (2=21 to 40%)	4 (4=61 to 80%)	4 (4=61 to 80%)
N#Cc1cccc(Oc2ncc(Cl)cn2)c1S(=O)(=O)CCCC(F)(F)F [Compound A30, 3-(5-chloropyrimidin-2-yl)oxy-2-(4,4,4-trifluorobutylsulfonyl)benzonitrile]	5 (5=81 to 100%)	5 (5=81 to 100%)	4 (4=61 to 80%)	5 (5=81 to 100%)	5 (5=81 to 100%)	5 (5=81 to 100%)	5 (5=81 to 100%)	5 (5=81 to 100%)	5 (5=81 to 100%)	5 (5=81 to 100%)	5 (5=81 to 100%)	5 (5=81 to 100%)
N#Cc1cccc(Oc2ncc(Cl)cn2)c1[S+]([O-])CCCC(F)(F)F (stereo not drawn) [Compound A29, 3-(5-chloropyrimidin-2-yl)oxy-2-(4,4,4-trifluorobutylsulfinyl)benzonitrile]	5 (5=81 to 100%)	5 (5=81 to 100%)	5 (5=81 to 100%)	5 (5=81 to 100%)	5 (5=81 to 100%)	5 (5=81 to 100%)	5 (5=81 to 100%)	5 (5=81 to 100%)	5 (5=81 to 100%)	5 (5=81 to 100%)	5 (5=81 to 100%)	5 (5=81 to 100%)

Reference: patent publication US20220324815A1, “2-PHENOXY-PYRIMIDINE DERIVATIVES AS HERBICIDAL COMPOUNDS” (SYNGENTA CROP PROTECTION AG, priority 2019, published 2022)
